Assay results: publication PMC12273560, “A versatile fluorescence polarization-based deubiquitination assay using an isopeptide bond substrate mimetic (IsoMim)” (The Journal of Biological Chemistry, 2025)

How the values were obtained:
USP2 = molecular target: T1, USP2 (Homo sapiens, UniProt O75604); experiment: fluorescence polarization deubiquitination assay (IsoMim); assay type: biochemical
T1 construct: expressed in E. coli BL21(DE3)-RIL, nickel column purification
T1 sequence (O75604 250-605): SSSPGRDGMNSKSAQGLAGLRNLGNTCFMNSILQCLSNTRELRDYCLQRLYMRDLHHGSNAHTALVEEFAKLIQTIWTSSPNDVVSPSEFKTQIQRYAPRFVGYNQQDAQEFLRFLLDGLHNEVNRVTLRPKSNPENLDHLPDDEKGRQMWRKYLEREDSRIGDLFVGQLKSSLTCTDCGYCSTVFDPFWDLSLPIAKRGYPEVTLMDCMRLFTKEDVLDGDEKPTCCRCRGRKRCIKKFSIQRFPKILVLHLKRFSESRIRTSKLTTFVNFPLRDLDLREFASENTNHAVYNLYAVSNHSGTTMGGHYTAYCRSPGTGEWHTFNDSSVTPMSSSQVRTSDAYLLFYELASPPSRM

UCHL3 = molecular target: T2, UCHL3 (Homo sapiens, UniProt P15374); experiment: as above; assay type: biochemical
T2 construct: expressed in E. coli BL21(DE3)-RIL, nickel column purification
T2 sequence (P15374 1-230): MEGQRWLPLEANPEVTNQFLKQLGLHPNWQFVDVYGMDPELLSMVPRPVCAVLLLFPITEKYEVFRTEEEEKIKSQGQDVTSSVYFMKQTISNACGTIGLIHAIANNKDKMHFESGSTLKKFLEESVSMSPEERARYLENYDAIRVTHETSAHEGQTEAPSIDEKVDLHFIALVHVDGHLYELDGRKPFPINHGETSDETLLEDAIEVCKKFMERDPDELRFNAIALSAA

`N#CSc1cc(SC#N)c(N)nc1N` [PR-619] showed an IC50 (USP2) of 1070 nM and an IC50 (UCHL3) of 4680 nM.
